# Data: patent publication US9233954B2, “Organic amine salts of Azilsartan, preparation method and use thereof” (Jiangsu Hansoh Pharmaceutical Co., Ltd., priority 2011, dated 2016)
# Tested on: hypertension rats induced by Angiotensin II
# Experiment: Effect on the hypertension rats induced by angiotensin II (DSI telemetry)
# Type: in vivo, Sprague-Dawley rats
# Conditions: for The average MBP over 23 hours before administration: baseline before single intragastric dose; for The average MBP over 23 hours before administration / Average blood pressure 1 hr after administration / Average blood pressure 2 hr after administration / Average blood pressure 3 hr before administration / Average blood pressure 7 hr after administration / Average blood pressure 13 hr after administration / Average blood pressure 13 hr before administration / Average blood pressure 18 hr after administration / Average blood pressure 23 hr after administration / Average blood pressure 23 hr before administration / The average MBP over 23 hours after administration: Mean±S.E., N=8; for Average ratio of reduction of the average blood pressure: average value after administration over 23 hours
# Description: The Effect on the Hypertension Rats Induced by Angiotensin II
# The dosage of angiotensin II was determined according to literature (Harrison-Bernard L M, Zhuo J, Kobori H, Ohishi M, Navar L G. Intrarenal A T (1) receptor and ACE binding in ANG II-induced hypertensive rats. Am. J. Physiol. Renal Physiol. 2002 January; 282(1):F19-25; Diz D I, Baer P G, Nasjletti A. Angiotensin II-induced hypertension in the rat. Effects on the plasma concentration, renal excretion, and tissue release of prostaglandins. J. Clin. Invest. 1983 August; 72(2):466-77.). Angiotensin II was precisely weighed and diluted with sterile saline up to a concentration of 14.4 mg/mL, then mixed slightly until clear and stored at −20° C. in the dark.
# HS-10149 suspension: the compounds were precisely weighed and diluted with 2% of Ceolus suspension in a gradient of 0.20 mg/ml, 0.06 mg/ml, 0.02 mg/ml, then the suspension was stirred until dissolution and stored at 4° C. in the dark. The sample was warmed to room temperature in advance before administration and mixed to uniform.
# The animals with required weight (female: 230-250 g, male: 200-220 g) were selected after adaptation for one week. The male rats were subjected to combined anesthesia of ketamine (44 mg/kg, im.) and 2% pentobarbital sodium solution (30 mg/kg, ip), and the female rates were narcotized with 2% pentobarbital sodium solution (40 mg/kg, ip). The implants were implanted on day 0 and the blood pressure was continuously monitored for 24 hours from the 7th day after implantation of a micro osmotic pump. The animals with mean systolic blood pressure (MSBP) up to 140 mmHg over 24 hours were considered as standard screening animals. The qualified animals were used in the test and the unqualified animals were excluded.
# The qualified animals were divided into groups according to their MSBP over 24 hours, 8 animals for each group with half female and half male. 8 animals for each group met the requirement of statistical tests and the requirement of pharmacodynamics guiding principles.
# After grouping, the solvent control, low, middle and high dosage animal groups were intragastrically administered with 2% Ceolus, 0.1 mg/kg, 0.3 mg/kg and 1.0 mg/kg of HS-10149, respectively. The administration time was 10:00 and 10:30 a.m. and the administration volume was 5 mL/kg.
# (4) Experimental Process Healthy animals were implanted with implants at day 0 and a micro osmotic pump was implanted subcutaneously at day 8. The blood pressure was monitored for 24 hours from the 15th day and the animals with qualified blood pressure were selected to test. Positive drug or test sample was administered once at 10:00 a.m. on the 16th day and the blood pressure was monitored after administration for 24 hours. At the end of the test, the animals were sacrificed by excessive carbon dioxide. 5. Handling and Analysis of Data
# The data were recorded every 5 s automatically by the DSI remote sensing pressure measuring device. The mean value calculated within an hour as unit by the software was considered as initial data.
structure (smiles),measurement,setting,value
CCOc1nc2cccc(C(=O)O)c2n1Cc1ccc(-c2ccccc2-c2noc(=O)[nH]2)cc1.CCOc1nc2cccc(C(=O)[O-])c2n1Cc1ccc(-c2ccccc2-c2noc(=O)[nH]2)cc1.C[N+](C)(C)CCO [Example 2],The average MBP over 23 hours before administration,0.1 mg/kg group,146 ± 5 mmHg
same,Average blood pressure 1 hr after administration,0.1 mg/kg group,128 ± 8
same,Average blood pressure 2 hr after administration,0.1 mg/kg group,102 ± 9
same,Average blood pressure 3 hr before administration,0.1 mg/kg group,128 ± 9
same,Average blood pressure 7 hr after administration,0.1 mg/kg group,91 ± 5
same,Average blood pressure 13 hr after administration,0.1 mg/kg group,110 ± 3
same,Average blood pressure 13 hr before administration,0.1 mg/kg group,144 ± 7
same,Average blood pressure 18 hr after administration,0.1 mg/kg group,114 ± 3
same,Average blood pressure 23 hr after administration,0.1 mg/kg group,109 ± 5
same,Average blood pressure 23 hr before administration,0.1 mg/kg group,142 ± 8
same,The average MBP over 23 hours after administration,0.1 mg/kg single intragastric dose,110 ± 3 mmHg
same,Antihypertension effect in the hypertension rat models induced by angiotensin II,0.1 mg/kg to 1.0 mg/kg,significant antihypertension effect
same,Average ratio of reduction of the average blood pressure,0.1 mg/kg,24.7%
same,The average MBP over 23 hours before administration,0.3 mg/kg group,145 ± 5 mmHg
same,Average blood pressure 1 hr after administration,0.3 mg/kg group,119 ± 11
same,Average blood pressure 2 hr after administration,0.3 mg/kg group,83 ± 6
same,Average blood pressure 3 hr before administration,0.3 mg/kg group,124 ± 10
same,Average blood pressure 7 hr after administration,0.3 mg/kg group,77 ± 4
same,Average blood pressure 13 hr after administration,0.3 mg/kg group,91 ± 8
same,Average blood pressure 13 hr before administration,0.3 mg/kg group,150 ± 6
same,Average blood pressure 18 hr after administration,0.3 mg/kg group,108 ± 10
same,Average blood pressure 23 hr after administration,0.3 mg/kg group,93 ± 3
same,Average blood pressure 23 hr before administration,0.3 mg/kg group,147 ± 8
same,The average MBP over 23 hours after administration,0.3 mg/kg single intragastric dose,88 ± 7 mmHg
same,Average ratio of reduction of the average blood pressure,0.3 mg/kg,39.3%
same,The average MBP over 23 hours before administration,1.0 mg/kg group,147 ± 5 mmHg
same,Average blood pressure 1 hr after administration,1.0 mg/kg group,118 ± 6
same,Average blood pressure 2 hr after administration,1.0 mg/kg group,85 ± 5
same,Average blood pressure 3 hr before administration,1.0 mg/kg group,129 ± 9
same,Average blood pressure 7 hr after administration,1.0 mg/kg group,74 ± 4
same,Average blood pressure 13 hr after administration,1.0 mg/kg group,76 ± 6
same,Average blood pressure 13 hr before administration,1.0 mg/kg group,149 ± 7
same,Average blood pressure 18 hr after administration,1.0 mg/kg group,80 ± 5
same,Average blood pressure 23 hr after administration,1.0 mg/kg group,81 ± 5
same,Average blood pressure 23 hr before administration,1.0 mg/kg group,146 ± 9
same,The average MBP over 23 hours after administration,1.0 mg/kg single intragastric dose,81 ± 5 mmHg
same,Average ratio of reduction of the average blood pressure,1.0 mg/kg,44.9%
same,Minimum effective dose,single intragastric administration,0.1 mg/kg
same,Duration of the effect after single administration,"single intragastric administration, 0.1-1.0 mg/kg",about 23 hours
